# Laboratory results reported in patent publication US11547697B2, “Heterocyclic compounds and uses thereof” (MILLENNIUM PHARMACEUTICALS, INC., priority 2009, dated 2023).
# Like-named read-outs stand apart in the source and are kept apart here.
# Legend:
# [1] = target: p110α/p85α (Homo sapiens (Human), UniProt P42336); assay: PI 3-Kinase (human) HTRF assay, p110α/p85α; assay type: biochemical; conditions: read-out: PI3K α IC50
# [2] = target: p110β/p85α (Homo sapiens (Human), UniProt P42338); assay: PI 3-Kinase (human) HTRF assay, p110β/p85α; assay type: biochemical; conditions: read-out: PI3K β IC50
# p110β/p85α, sequence (P42338 whole entry): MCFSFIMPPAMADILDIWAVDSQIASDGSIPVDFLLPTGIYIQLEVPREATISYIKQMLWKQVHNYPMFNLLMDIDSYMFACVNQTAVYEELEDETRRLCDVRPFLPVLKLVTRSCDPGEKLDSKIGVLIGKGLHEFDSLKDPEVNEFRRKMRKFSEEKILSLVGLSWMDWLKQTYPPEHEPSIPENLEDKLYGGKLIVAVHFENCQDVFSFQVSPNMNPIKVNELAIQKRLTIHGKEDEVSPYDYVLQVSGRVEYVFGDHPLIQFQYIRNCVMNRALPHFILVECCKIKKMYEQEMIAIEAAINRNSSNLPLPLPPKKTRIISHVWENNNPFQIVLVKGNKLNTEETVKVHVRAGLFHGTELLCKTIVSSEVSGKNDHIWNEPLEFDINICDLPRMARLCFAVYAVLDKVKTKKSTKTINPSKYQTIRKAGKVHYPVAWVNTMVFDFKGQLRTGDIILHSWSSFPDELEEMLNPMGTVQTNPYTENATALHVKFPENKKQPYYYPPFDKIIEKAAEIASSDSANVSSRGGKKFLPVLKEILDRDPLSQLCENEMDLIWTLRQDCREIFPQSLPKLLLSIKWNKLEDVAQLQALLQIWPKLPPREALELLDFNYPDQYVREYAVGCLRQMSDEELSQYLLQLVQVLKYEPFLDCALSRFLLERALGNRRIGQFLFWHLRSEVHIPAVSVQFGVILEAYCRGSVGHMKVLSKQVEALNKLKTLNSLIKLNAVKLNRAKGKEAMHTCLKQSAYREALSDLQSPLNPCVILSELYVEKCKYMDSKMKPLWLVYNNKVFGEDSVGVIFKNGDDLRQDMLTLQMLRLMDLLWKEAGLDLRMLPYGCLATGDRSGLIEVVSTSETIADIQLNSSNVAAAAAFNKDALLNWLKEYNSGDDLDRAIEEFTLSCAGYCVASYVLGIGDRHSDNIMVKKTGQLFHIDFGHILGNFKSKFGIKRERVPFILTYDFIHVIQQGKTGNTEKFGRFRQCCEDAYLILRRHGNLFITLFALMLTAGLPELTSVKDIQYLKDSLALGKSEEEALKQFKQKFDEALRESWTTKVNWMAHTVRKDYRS
# p110β/p85α, sequence (P27986 whole entry partner): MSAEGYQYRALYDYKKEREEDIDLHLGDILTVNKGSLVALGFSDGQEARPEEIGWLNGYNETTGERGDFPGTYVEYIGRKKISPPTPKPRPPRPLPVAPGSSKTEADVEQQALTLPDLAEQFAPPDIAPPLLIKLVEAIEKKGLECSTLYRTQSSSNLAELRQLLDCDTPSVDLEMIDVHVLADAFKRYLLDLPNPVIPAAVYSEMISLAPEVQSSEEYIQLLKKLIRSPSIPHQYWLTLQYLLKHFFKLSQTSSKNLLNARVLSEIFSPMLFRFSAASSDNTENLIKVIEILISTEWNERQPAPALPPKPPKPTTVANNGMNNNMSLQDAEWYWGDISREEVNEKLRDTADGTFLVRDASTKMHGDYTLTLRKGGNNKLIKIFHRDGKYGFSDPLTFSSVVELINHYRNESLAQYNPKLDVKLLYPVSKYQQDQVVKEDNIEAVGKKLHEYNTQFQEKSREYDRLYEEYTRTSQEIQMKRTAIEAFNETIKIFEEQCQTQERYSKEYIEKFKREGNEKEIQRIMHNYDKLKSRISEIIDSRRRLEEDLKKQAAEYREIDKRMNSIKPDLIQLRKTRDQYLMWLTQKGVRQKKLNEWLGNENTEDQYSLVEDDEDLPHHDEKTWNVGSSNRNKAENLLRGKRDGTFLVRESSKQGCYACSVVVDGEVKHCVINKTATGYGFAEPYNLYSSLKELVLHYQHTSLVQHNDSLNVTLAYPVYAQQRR
# [3] = target: p110δ/p85α (Homo sapiens (Human), UniProt O00329); assay: PI 3-Kinase (human) HTRF assay, p110δ/p85α; assay type: biochemical; conditions: read-out: PI3K δ IC50
# p110δ/p85α, sequence (O00329 whole entry): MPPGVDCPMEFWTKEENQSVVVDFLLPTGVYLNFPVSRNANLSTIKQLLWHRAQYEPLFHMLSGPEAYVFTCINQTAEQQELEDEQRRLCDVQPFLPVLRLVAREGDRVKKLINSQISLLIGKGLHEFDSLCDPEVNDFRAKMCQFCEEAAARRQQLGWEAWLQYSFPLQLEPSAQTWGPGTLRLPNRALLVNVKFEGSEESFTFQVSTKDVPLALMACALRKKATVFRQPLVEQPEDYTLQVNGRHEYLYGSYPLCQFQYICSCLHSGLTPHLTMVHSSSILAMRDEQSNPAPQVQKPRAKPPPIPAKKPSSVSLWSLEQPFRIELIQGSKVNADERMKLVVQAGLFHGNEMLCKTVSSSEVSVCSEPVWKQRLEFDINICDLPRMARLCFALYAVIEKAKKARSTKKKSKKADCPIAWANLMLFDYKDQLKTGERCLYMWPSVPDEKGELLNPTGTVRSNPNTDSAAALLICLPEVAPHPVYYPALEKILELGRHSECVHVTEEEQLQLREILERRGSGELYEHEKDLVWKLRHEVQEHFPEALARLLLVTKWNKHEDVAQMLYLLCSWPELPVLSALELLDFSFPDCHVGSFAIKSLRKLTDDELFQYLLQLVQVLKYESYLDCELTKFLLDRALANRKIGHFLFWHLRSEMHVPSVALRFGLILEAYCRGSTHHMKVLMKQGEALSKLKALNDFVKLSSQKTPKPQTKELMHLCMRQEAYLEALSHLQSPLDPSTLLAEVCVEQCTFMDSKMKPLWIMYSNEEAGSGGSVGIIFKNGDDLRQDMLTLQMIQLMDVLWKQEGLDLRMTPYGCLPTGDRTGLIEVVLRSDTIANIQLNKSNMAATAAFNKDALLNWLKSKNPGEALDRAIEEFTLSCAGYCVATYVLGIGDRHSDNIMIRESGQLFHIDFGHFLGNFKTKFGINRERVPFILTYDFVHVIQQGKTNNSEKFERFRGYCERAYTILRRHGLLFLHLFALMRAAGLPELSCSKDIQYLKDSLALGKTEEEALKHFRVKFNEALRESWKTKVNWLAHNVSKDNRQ
# p110δ/p85α, sequence (P27986 whole entry partner): as the sequence (P27986 whole entry partner) above
# [4] = target: p110γ (Homo sapiens (Human), UniProt P48736); assay: PI 3-Kinase (human) HTRF assay, p110γ; assay type: biochemical; conditions: read-out: PI3K γ IC50
# p110γ, sequence (P48736 whole entry): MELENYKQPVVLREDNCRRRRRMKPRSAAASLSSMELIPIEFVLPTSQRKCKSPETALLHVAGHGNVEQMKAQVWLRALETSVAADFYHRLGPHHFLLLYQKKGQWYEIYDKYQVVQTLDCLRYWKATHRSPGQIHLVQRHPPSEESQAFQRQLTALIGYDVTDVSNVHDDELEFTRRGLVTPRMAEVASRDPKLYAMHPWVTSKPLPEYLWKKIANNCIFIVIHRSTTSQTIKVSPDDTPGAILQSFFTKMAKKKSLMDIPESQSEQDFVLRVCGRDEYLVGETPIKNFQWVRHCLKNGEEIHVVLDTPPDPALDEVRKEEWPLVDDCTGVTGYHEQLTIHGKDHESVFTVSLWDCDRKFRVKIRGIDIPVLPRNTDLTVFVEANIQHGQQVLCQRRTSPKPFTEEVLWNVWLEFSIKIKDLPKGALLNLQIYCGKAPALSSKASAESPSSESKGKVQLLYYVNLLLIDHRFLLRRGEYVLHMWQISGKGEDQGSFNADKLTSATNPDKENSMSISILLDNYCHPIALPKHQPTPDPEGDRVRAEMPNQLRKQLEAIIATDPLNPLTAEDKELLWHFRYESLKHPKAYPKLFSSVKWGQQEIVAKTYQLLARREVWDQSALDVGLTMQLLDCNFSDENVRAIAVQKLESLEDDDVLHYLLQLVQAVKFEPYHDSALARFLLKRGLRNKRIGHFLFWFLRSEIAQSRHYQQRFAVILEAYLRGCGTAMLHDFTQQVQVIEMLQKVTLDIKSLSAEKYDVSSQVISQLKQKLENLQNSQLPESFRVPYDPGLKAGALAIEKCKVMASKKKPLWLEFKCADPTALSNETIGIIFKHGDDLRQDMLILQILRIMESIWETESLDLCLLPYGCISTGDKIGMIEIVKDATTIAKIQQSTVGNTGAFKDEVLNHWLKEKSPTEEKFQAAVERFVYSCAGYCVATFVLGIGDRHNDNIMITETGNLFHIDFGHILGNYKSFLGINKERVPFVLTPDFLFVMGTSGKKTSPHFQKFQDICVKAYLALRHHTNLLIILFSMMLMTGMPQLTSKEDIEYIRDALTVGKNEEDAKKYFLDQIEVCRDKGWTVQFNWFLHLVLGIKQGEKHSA
# [5] = test system: tumor cells with a PI3Kα mutation (e.g., MDA-MB-361 and T47D); assay: Proliferation of tumor cells with PI3Kα mutation; assay type: cell-based; conditions: Homo sapiens, T47D cells
# [6] = read-out: T47D proliferation IC50
# p110α/p85α, sequence (P42336 whole entry): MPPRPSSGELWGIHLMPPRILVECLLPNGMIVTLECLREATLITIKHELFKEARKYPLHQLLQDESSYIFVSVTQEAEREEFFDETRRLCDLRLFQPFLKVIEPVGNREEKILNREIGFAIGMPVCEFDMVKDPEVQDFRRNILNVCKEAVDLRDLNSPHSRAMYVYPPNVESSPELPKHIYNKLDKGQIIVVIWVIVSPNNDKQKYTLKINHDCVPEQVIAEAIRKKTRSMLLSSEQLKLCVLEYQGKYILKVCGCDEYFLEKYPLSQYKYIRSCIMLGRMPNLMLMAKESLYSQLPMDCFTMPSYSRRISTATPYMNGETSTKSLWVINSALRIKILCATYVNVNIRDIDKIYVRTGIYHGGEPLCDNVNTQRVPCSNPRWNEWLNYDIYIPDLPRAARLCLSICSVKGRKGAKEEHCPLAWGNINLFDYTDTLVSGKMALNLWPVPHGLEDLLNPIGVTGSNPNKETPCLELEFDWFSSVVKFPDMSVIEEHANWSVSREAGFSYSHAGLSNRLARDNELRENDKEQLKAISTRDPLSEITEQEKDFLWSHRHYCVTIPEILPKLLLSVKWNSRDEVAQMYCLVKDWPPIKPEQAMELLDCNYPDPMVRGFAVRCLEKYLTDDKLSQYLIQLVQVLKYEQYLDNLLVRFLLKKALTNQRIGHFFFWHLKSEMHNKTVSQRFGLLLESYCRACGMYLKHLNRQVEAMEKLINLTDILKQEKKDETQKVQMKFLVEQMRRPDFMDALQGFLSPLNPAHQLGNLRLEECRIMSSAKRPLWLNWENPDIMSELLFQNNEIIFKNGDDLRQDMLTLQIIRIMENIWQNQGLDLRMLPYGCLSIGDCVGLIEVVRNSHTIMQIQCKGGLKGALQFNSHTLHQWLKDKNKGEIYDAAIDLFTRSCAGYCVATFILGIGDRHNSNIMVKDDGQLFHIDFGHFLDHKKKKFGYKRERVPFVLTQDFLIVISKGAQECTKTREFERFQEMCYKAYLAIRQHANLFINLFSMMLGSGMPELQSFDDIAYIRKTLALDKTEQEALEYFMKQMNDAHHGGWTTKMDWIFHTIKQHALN
# p110α/p85α, sequence (P27986 whole entry partner): as the sequence (P27986 whole entry partner) above
SMILES,IC50 [1] [µM],IC50 [2] [µM],IC50 [3] [µM],IC50 [4] [µM],IC50 ([5]; read-out: T47D proliferation) [µM],IC50 ([1]; in vitro) [µM],IC50 ([2]; in vitro) [µM],IC50 ([4]; in vitro) [µM],"IC50 [5, 6] [µM]",IC50 ([3]; in vitro) [µM]
CN1CCN(c2ccc(-c3cnc4ccc(-c5ccc6oc(N)nc6c5)cn34)cn2)CC1 [compound 42],< 0.1,,< 1,< 1,< 10,,,,,
Nc1nc2cc(-c3ccc4ncc(-c5ccc6nc(N)oc6c5)n4c3)ccc2o1 [compound 50],< 0.1,,< 10,< 0.1,< 10,,,,,
CN1CCN(c2cnc3ccc(-c4ccc5oc(N)nc5c4)cc3n2)CC1 [compound 65],< 0.1,< 0.1,< 10,< 1,< 10,,,,,
CC(C)N1CCN(c2cnc3ccc(-c4ccc5oc(N)nc5c4)cc3n2)CC1 [compound 84],< 0.1,< 0.1,< 1,< 0.1,< 10,,,,,
Nc1nc2cc(-c3ccc4ncc(N5CCNCC5)nc4c3)ccc2o1 [compound 88],< 0.1,< 0.1,< 10,< 1,< 10,,,,,
CC(=O)N1CCN(C(=O)c2cnc3ccc(-c4ccc5oc(N)nc5c4)cn23)CC1 [compound 113],< 0.1,,,< 1,< 10,,,,,
CN1CCN(c2cnc3ccc(-c4ccc5nc(N)sc5c4)cc3n2)CC1 [compound 115],< 0.1,< 0.1,,< 10,< 10,,,,,
Nc1nc2ccc(-c3ccc4ncc(N5CCOCC5)nc4c3)cc2o1 [compound 117],< 0.1,< 1,,< 1,< 10,,,,,
Nc1nc2cc(-c3ccc4ncc(C(=O)NC5CCC(O)CC5)n4c3)ccc2o1 (stereo not shown) [compound 143],,,,,< 1,,,,,
Nc1nc2cc(-c3ccc4ncc(C(=O)N5CCN(CCO)CC5)n4c3)ccc2o1 [compound 148],< 0.1,,,< 10,< 10,,,,,
CC(C)N1CCN(C(=O)c2cnc3ccc(-c4ccc5oc(N)nc5c4)cn23)CC1 [compound 160],< 0.1,< 10,,,< 10,,,,,
Nc1nc2cc(-c3ccc4ncc(N5CCC(N)CC5)nc4c3)ccc2o1 [compound 168],< 0.1,< 1,< 10,,< 10,,,,,
Nc1nc2cc(-c3ccc4ncn(CCO)c(=O)c4c3)ccc2o1 [compound 184],< 0.1,< 10,,< 1,< 10,,,,,
CC1CN(C(=O)c2cnc3ccc(-c4ccc5oc(N)nc5c4)cn23)CCO1 (stereo not shown) [compound 201],,,,,,< 0.1,< 10,< 10,< 10,
CC(C)(N)C(=O)N1CCN(c2cnc3ccc(-c4ccc5oc(N)nc5c4)cc3n2)CC1 [compound 213],,,,,,< 0.1,< 1,,< 1,< 1
NC(=O)[C@@H]1CCCN1c1cnc2ccc(-c3ccc4oc(N)nc4c3)cc2n1 [compound 257],,,,,,< 0.1,,,< 10,

# The next lines start with the values.
IC50 [1] [µM],IC50 [2] [µM],IC50 [3] [µM],IC50 [4] [µM],IC50 ([5]; read-out: T47D proliferation) [µM],IC50 ([1]; in vitro) [µM],IC50 ([2]; in vitro) [µM],IC50 ([4]; in vitro) [µM],"IC50 [5, 6] [µM]",IC50 ([3]; in vitro) [µM],SMILES
< 0.1,< 10,< 10,< 1,< 1,,,,,,Nc1noc2cc(-c3ccc4nccc(-c5ccncc5)c4c3)ccc12 [compound 16]
< 0.1,< 1,< 10,< 1,< 1,,,,,,CS(=O)(=O)CCN1CCN(c2cnc3ccc(-c4ccc5oc(N)nc5c4)cc3n2)CC1 [compound 90]
< 0.1,< 10,< 1,< 0.1,< 1,,,,,,Nc1nc2cc(-c3ccc4ncc(NC5CCOCC5)nc4c3)ccc2o1 [compound 96]
< 0.1,< 10,,< 0.1,< 1,,,,,,Nc1nc2cc(-c3ccc4ncc(-c5cnn(CCO)c5)nc4c3)ccc2o1 [compound 108]
< 0.1,,< 10,< 1,< 1,,,,,,CS(=O)(=O)N1CCN(C(=O)c2cnc3ccc(-c4ccc5oc(N)nc5c4)cn23)CC1 [compound 112]
< 0.1,< 1,,< 1,< 1,,,,,,Nc1nc2cc(-c3ccc4ncc(N5CCOCC5)nc4c3)ccc2s1 [compound 116]
< 0.1,< 1,< 10,,< 1,,,,,,CNC(=O)CN1CCN(c2cnc3ccc(-c4ccc5oc(N)nc5c4)cc3n2)CC1 [compound 120]
< 0.1,< 1,,< 1,< 1,,,,,,Nc1nc2cc(-c3ccc4ncc(N5CCNC(=O)C5)nc4c3)ccc2o1 [compound 135]
